# Source: patent publication US8975275B2, “Use of chemotherapeutic agents” (priority 1999, dated 2015)
# Where a name gives a salt, the structure may show the parent alone.
# Legend:
# bacteraemia = conditions: systemic administration ten minutes prior to a dental extraction; cited from earlier work
# [1] = system: Staphylococcus aureus strains; conditions: microorganisms isolated from the root canals after topical antibiotic treatment; cited from earlier work
# Staphylococcus epidermis = conditions: microorganisms isolated from the root canals after topical antibiotic treatment; cited from earlier work
# [2] = system: pulpitis due to carious diseases; assay: Topical treatment of pulpitis due to carious diseases (patient cases); assay type: in vivo, human
# Source text: This is of great importance because, for example in the case of caries profunda, it is always necessary to decide whether softened residual dentin can be left over the pulp. By virtue of complete elimination of the microbes present, there is now a novel method of treatment wherein a thin softened dentin covering can be left if the compounds of formula (I) or formula (II) are used. This method of treatment makes it possible to free infected dentin layers of microbes and to stop pulp infections. This means that pain reactions are eliminated and pulp infections are to a certain extent cured. The pulp remains vital. The topical application of the compounds of formula (I) or formula (II) followed the removal of the carious dentin. The compounds of formula (I) or formula (II) were applied for example in aqueous solution, in a form of gelatinous consistency or on an inert carrier, for example by means of a cotton wool plug. The overlying cavity was occluded with a cement to seal the margins. The cotton wool plug was left in the cavity for three to six days. The compounds of formula (I) or formula (II) can be used in concentrations of 0.005 mg/ml to 200 mg/ml, Preferred concentrations are those ranging from 0.5 mg/ml to 150 mg/ml and particularly preferred concentrations are those ranging from 10 to 100 mg/ml.
# osseomucosal wounds = assay: Topical treatment of osseomucosal wounds (patient cases); assay type: in vivo, human
# Source text: Application is effected by flushing and/or by means of strip inserts impregnated with compounds of formula (I) or formula (II). They are to be used for example for postoperative infections following dentosurgical interventions (extractions). For this purpose the gel containing the compound of formula (I) or formula (II) is syringed directly into the extraction wound or onto a collagen sponge which remains in the extraction wound. The wound is closed for about half an hour by biting on a tampon. Prophylactic applications have been particularly successful after the extraction of teeth with focal infections, Liquid forms of administration suitable for flushing fistulae are those containing the compounds of formula (I) or formula (II) in concentrations of 0.005 mg/ml to 250 mg/ml. Preferred concentrations are those ranging from 0.5 to 100 mg/ml, Forms suitable for coating strips are gels containing the compounds of formula (I) or formula (II), as well as aqueous solutions or suspensions. These applications can contain the compounds of formula (I) or formula (II) in concentrations of 0.005 mg/ml to 200 mg/ml. Preferred concentrations for solutions are those ranging from 0.1 to 50 mg/ml Gelatinous forms of administration in concentrations of 25-150 mg/ml are preferred in the case of strip inserts.
# periodontal diseases = assay: Topical treatment of periodontal diseases (patient cases); assay type: in vivo, human
# Source text: To do this, threads or so-called chips impregnated with solutions or gelatinous preparations of the compounds of formula (I) or formula (II) are inserted in the gingival pocket. A possible alternative is to use medicament carriers in the form of trays covering the teeth and gingiva. Before they are applied, the gelatinous applications of the compounds of formula (I) or formula (II) are instilled into the gingival pockets. In addition, the gel containing the compounds of formula (I) or formula (II) can also be placed in the medicament carrier. This use of medicament carriers is advantageous because the treatment time can be reduced by the rapid onset of action to about 15 to 30 minutes, so the treatment can be carried out directly in the surgery. The compounds of formula (I) or formula (II) can be used in concentrations of 0.005 mg/ml to 200 mg/ml. Preferred concentrations are those ranging from 0.5 mg/ml to 200 mg/ml and particularly preferred concentrations are those ranging from 10 to 150 mg/ml. Periodontal diseases can also be treated by administering the compounds of formula (I) or formula (II) by intraligamental injection, it being possible to use concentrations ranging from 0.005 mg/ml to 200 mg/ml, preferably from 0.5 mg/ml to 200 mg/ml. For the antibiotics commonly used nowadays, such as tetracyclines, an intraligamental injection is not reasonable since these compounds with a predominantly bacteriostatic action are quickly washed out due to the rapid fluid exchange in the periodontal interstice, and cannot develop their action. Tetra-cyclines can therefore only develop their effects via depot formulations. By contrast, the compounds of formula (I) or formula (II) have a very rapid and also bactericidal action, so their residence time in the periodontal interstice is sufficient to destroy the microbes.
# [3] = system: infected root canal and periapical region; assay: Topical treatment of the infected root canal and the periapical region (patient cases); assay type: in vivo, human
# Protocol: In the clinical use of the compounds of formula (I) or formula (II), the pulp residues are removed first. The preparation of the canals is carried out with minimum discomfort for the patient. The canals are then flushed with hydrogen peroxide, Other methods of disinfection can be omitted. The compounds of formula (I) or formula (II), in a liquid form of administration, are then introduced into the toot canal under pressure using a cannula. The compounds of formula (I) or (II) are then injected in dissolved form or in a gelatinous form of administration. The root canal is subsequently occluded in the crown region, first with a cotton wool plug and then with zinc phosphate cement to seal the margins. If the canals are not gangrenous, the antibiotics remain in the canals for 3 days. […] The compounds of formula (I) or formula (II) can be used in concentrations of 0.005 mg/ml to 200 mg/ml.
# In this application technique, which is known from intraligamental anaesthesia, the tooth is completely flooded with the antibacterial solution of the compounds of formula (I) or formula (II) in the entire root region.
compound,measurement,setting,value
CO/N=C(\C(=O)N[C@@H]1C(=O)N2C(C(=O)O)=C(COC(N)=O)CS[C@H]12)c1ccco1 [cefuroxim],frequency of bacteraemia versus the untreated group,bacteraemia,lower frequency
O=C(N[C@H](CO)[C@H](O)c1ccc([N+](=O)[O-])cc1)C(Cl)Cl [chloramphenicol],resistance of strains,[1],majority of Staphylococcus aureus strains were resistant
CC[C@H]1OC(=O)[C@H](C)[C@@H](O[C@H]2C[C@@](C)(OC)[C@@H](O)[C@H](C)O2)[C@H](C)[C@@H](O[C@@H]2O[C@H](C)C[C@H](N(C)C)[C@H]2O)[C@](C)(O)C[C@@H](C)C(=O)[C@H](C)[C@@H](O)[C@]1(C)O [erythromycin],resistance of strains,[1],majority of Staphylococcus aureus strains were resistant
same,increase of resistance after the treatment,Staphylococcus epidermis,three-fold
"CO/N=C1\CN(c2nc3c(cc2F)c(=O)c(C(=O)O)cn3C2CC2)CC1CN (stereo not drawn) [gemifloxacin mesylate, 7-[(4Z)-3-(aminomethyl)-4-(methoxyimino)-1-pyrrolidinyl]-1-cyclopropyl-6-fluoro-1,4-dihydro-4-oxo-1,8-naphtyridine-3-carboxylic acid]",clinical finding at check-up,"[2]; Patient A 1.13, gel 25 mg/ml, repetition of insert, check-up after 4 days","tooth vital, patient symptom-free"
same,clinical finding at check-up,"[2]; Patient A 1.13, tooth 14, pellet insert gel 25 mg/ml, check-up after 3 weeks",still slight discomfort
"Cc1c(F)c(N2CCNC(C)C2)cc2c1c(=O)c(C(=O)O)cn2C1CC1 (stereo not drawn) [grepafloxacin, 1-cyclopropyl-6-fluoro-1,4-dihydro-5-methyl-7-(3-methyl-1-piperazinyl)-4-oxo-3-quinolinecarboxylic acid]",clinical finding at check-up,"osseomucosal wounds; Patient C 8, apical granulomas, extraction (osteotomy), gauze with gel 50 mg/ml, check-up after 3 days",patient is symptom-free
same,clinical finding at check-up,"osseomucosal wounds; Patient C 9, same combined treatment, after root canal filling, check-up after 2 weeks",patient symptom-free
same,clinical finding at check-up,"osseomucosal wounds; Patient C 9, tooth 14 pulpitis purulenta, fistulation, moxifloxacin hydrochloride solution 25 mg/ml flushing + grepafloxacin gel 25 mg/ml canal insert + moxifloxacin hydrochloride gel 25 mg/ml gauze insert, check-up after 6 days",patient symptom-free
same,clinical finding at check-up,"periodontal diseases; Patient B 7, teeth 14-17 marginal periodontitis, thread insert gel 50 mg/ml + intraligamental injection 50 mg/ml, check-up after 9 days","patient symptom-free, gingival regions and pockets inflammation-free"
same,clinical finding at check-up,"[3]; Patient A 3.16, after root filling, check-up after 1 week",patient still symptom-free
same,clinical finding at check-up,"[3]; Patient A 3.16, tooth 46 apical periodontitis, not gangrenous, root canal insert gel 50 mg/ml, check-up after 3 weeks",patient symptom-free
same,clinical finding at check-up,"[3]; Patient A 3.17, after root filling, check-up after 4 days",patient symptom-free
same,clinical finding at check-up,"[3]; Patient A 3.17, tooth 32 apical periodontitis due to gangrene, solution 20 mg/ml + gel 20 mg/ml + intraligamental injection 50 mg/ml, check-up after 6 days","no gangrenous odour, no bite discomfort"
same,clinical finding at check-up,"[3]; Patient A 3.23, tooth 34 fistulation, gangrenous, solution 50 mg/ml by paper point + intraligamental injection 50 mg/ml, check-up after 10 days",patient symptom-free
same,clinical finding at check-up,"[2]; Patient A 1.11, gel 25 mg/ml, after final filling, check-up after 4 weeks","tooth vital, patient symptom-free"
same,clinical finding at check-up,"[2]; Patient A 1.11, tooth 22, pellet insert gel 25 mg/ml, check-up after 5 days",patient was symptom-free
same,clinical finding at check-up,"[2]; Patient A 1.12, gel 50 mg/ml, after final filling, check-up after 14 days","teeth vital, patient symptom-free"
same,clinical finding at check-up,"[2]; Patient A 1.12, teeth 22, 23, pellet inserts gel 50 mg/ml, check-up after 1 week",teeth symptom-free
"C[C@H]1COc2c(N3CCN(C)CC3)c(F)cc3c(=O)c(C(=O)O)cn1c23 [levofloxacin, (3S)-9-fluoro-2,3-dihydro-3-methyl-10-(4-methyl-1-piperazinyl)-7-oxo-7H-pyrido[1,2,3-de]-1,4-benzoxazine-6-carboxylic acid]",clinical finding at check-up,"[2]; Patient A 1.14, tooth 13, night pain, pellet inserts gel 50 mg/ml, check-up after 14 days","patient symptom-free, tooth vital"
COc1cccc(OC)c1C(=O)N[C@@H]1C(=O)N2[C@@H]1SC(C)(C)[C@@H]2C(=O)O [methicillin],increase of resistance after the treatment,Staphylococcus epidermis,two-fold
"C[C@@H]1CN(c2c(F)c(N)c3c(=O)c(C(=O)O)cn(C4CC4)c3c2F)C[C@H](C)N1 [sparfloxacin, 5-amino-1-cyclopropyl-7-[(3R,5S)-3,5-dimethyl-1-piperazinyl]-6,8-difluoro-1,4-dihydro-4-oxo-3-quinolinecarboxylic acid]",clinical finding at check-up,"[2]; Patient A 1.16, gel 25 mg/ml, repetition of insert, check-up after 14 days","patient symptom-free, tooth vital"
same,clinical finding at check-up,"[2]; Patient A 1.16, tooth 46 reduced vitality, pellet insert gel 25 mg/ml, check-up after 4 days",still slight sensitivity to heat
"NC1CCN(c2nc3c(cc2F)c(=O)c(C(=O)O)cn3-c2ccc(F)cc2F)C1 (stereo not drawn) [tosufloxacin tosylate, 7-(3-amino-1-pyrrolidinyl)-1-(2,4-difluorophenyl)-6-fluoro-1,4-dihydro-4-oxo-1,8-naphthyridine-3-carboxylic acid]",clinical finding at check-up,"[3]; Patient A 3.20, tooth 47 apical periodontitis, not gangrenous, root canal insert gel 100 mg/ml, check-up after 8 days",patient symptom-free
same,clinical finding at check-up,"[3]; Patient A 3.22, tooth 35 apical periodontitis, not gangrenous, root canal insert gel 50 mg/ml, check-up after 10 days",patient symptom-free
"N[C@@H]1[C@H]2CN(c3nc4c(cc3F)c(=O)c(C(=O)O)cn4-c3ccc(F)cc3F)C[C@@H]12 [trovafloxacin mesylate, 7-(1α,5α,6α-6-amino-3-azabicyclo[3.1.0]hex-3-yl)-1-(2,4-difluorophenyl)-6-fluoro-1,4-dihydro-4-oxo-1,8-naphthyridine-3-carboxylic acid]",clinical finding at check-up,"periodontal diseases; Patient B 8, marginal periodontitis entire upper and lower jaw, medicinal splint gel 0.25 mg/ml 10 minutes/day for 6 days, check-up after 6 days","patient symptom-free, inflammation phenomena no longer present"
same,clinical finding at check-up,"[3]; Patient A 3.18, tooth 34 apical periodontitis due to gangrene, gel 100 mg/ml + intraligamental injection 50 mg/ml, check-up after 12 days",patient symptom-free
same,clinical finding at check-up,"[3]; Patient A 3.19, tooth 11 apical periodontitis due to gangrene simplex, root canal insert solution 50 mg/ml, check-up after 3 weeks","patient symptom-free, canal odour-free"
same,clinical finding at check-up,"[2]; Patient A 1.15, tooth 44, night pain, pellet insert gel 50 mg/ml, check-up after 9 days","patient symptom-free, tooth vital"
penicillin,resistance of strains,[1],majority of Staphylococcus aureus strains were resistant
